According to patent US9776972B2, “Pyrazole derivatives as arginine methyltransferase inhibitors and uses thereof” (priority 2013, dated 2017):
Like-named read-outs stand apart in the source and are kept apart here.

Legend:
human PRMT6 = target: T1, human PRMT6 (Homo sapiens, UniProt Q96LA8); assay: PRMT6 Biochemical Assay (3H-SAM Flashplate, peptide substrate)
T1 construct: Flag-PRMT6-His; made in house; host or cells: HEK 293F cells (BacMam baculovirus)
Method in brief: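 Flag-PRMT6-His, expressed in mammalian cells from a BacMam vector, was preincubated with compound for 30 min at room temperature in Bicine pH 7.6 buffer with TCEP, BSG and Tween 20. Reactions were started with ³H-SAM and a biotinylated histone H4 36-50 peptide, then stopped with cold SAM (400 uM final). Labeled peptide was captured on streptavidin Flashplates, counted, and fitted to a 3- or 4-parameter curve.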

Human CARM1 (PRMT4) = target: T2, Human CARM1 (PRMT4) (Homo sapiens, UniProt Q86X55); assay: CARM1 Biochemical Assay (3H-SAM Flashplate, peptide substrate); settings: single experiment or average of multiple experiments
T2 construct: Flag-CARM1-His; made in house; host or cells: HEK 293F cells (BacMam baculovirus)
T2 sequence (Q86X55 1-585 isoform Q86X55-1): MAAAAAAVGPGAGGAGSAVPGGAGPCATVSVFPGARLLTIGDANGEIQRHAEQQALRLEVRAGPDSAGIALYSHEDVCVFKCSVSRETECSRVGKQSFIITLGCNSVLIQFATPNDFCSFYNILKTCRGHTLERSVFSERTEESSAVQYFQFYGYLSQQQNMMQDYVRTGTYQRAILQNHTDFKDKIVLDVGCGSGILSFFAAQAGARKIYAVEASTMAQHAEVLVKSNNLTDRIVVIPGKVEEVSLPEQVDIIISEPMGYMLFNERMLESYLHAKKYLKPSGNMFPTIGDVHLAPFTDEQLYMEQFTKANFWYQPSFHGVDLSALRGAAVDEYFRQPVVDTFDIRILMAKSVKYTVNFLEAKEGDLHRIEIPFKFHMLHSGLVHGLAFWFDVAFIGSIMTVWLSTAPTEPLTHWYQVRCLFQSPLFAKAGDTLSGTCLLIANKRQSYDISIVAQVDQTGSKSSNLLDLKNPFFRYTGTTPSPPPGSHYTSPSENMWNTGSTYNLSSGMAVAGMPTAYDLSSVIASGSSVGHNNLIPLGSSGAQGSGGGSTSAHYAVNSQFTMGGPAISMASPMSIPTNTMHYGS
Method in brief: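 Flag-CARM1-His from baculovirus was pre-incubated with compound for 30 min at room temperature in 20 mM Bicine pH 7.6, then reacted with 3H-SAM and a biotinylated H3(16-30) R26-monomethyl peptide.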

[1] = single experiment or average of multiple experiments, read-out: Biochemical IC50 PRMT6
[2] = Biochemical IC50 PRMT6, single experiment or average of multiple experiments

T1 sequence (Q96LA8 with tags, fused parts or gaps): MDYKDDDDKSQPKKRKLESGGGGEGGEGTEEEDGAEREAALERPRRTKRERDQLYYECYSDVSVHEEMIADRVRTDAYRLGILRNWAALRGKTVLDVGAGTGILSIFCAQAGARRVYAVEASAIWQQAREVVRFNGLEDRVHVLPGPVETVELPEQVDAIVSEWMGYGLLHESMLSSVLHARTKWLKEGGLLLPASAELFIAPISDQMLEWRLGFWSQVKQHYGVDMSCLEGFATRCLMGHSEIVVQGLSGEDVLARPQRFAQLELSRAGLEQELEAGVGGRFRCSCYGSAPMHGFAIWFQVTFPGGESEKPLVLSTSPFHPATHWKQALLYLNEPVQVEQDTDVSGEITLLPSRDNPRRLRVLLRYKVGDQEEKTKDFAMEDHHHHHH

| IC50 (Human CARM1 (PRMT4)) | IC50 (human PRMT6; [2]) | SMILES | IC50 (human PRMT6; [1]) |
| --- | --- | --- | --- |
|  | 27 nM | CN(CCN)Cc1cn(C)nc1-c1ccc(F)cc1 [Compound 3] |  |
|  | 467 nM | COCCn1cc(CN(C)CCN)c(-c2ccc(F)cc2)n1 [Compound 5] |  |
| 2810 nM |  | CCN(CCNC)Cc1c[nH]nc1-c1ccc(F)cc1 [Compound 9] |  |
| 1190 nM |  | CNCCN(C)Cc1cnn(C)c1-c1ccc(F)cc1 [Compound 10] |  |
| 4840 nM | 191 nM | CNCCN(C)Cc1cnn(CC2CCOCC2)c1-c1ccc(F)cc1 [Compound 12] |  |
|  |  | CNCCN(C)Cc1c[nH]nc1-c1ccccc1O [Compound 35] | 457 nM |
| 2110 nM | 37.8 nM | CNCCN(C)Cc1c[nH]nc1-c1cccc(OC(F)(F)F)c1 [Compound 39] |  |
|  |  | CNCCN(C)Cc1c[nH]nc1-c1ccccc1NS(C)(=O)=O [Compound 41] | 8140 nM |
| 5620 nM | 44.1 nM | CNCCN(C)Cc1c[nH]nc1-c1ccccc1F [Compound 48] |  |
| 247 nM |  | CC(C)Oc1ccc(-c2n[nH]cc2CN(C)CCN)cc1 [Compound 67] |  |
| 3920 nM | 34.2 nM | CN(CCN)Cc1n[nH]cc1-c1ccc(F)cc1 [Compound 69] |  |
| 3630 nM | 18.9 nM | CN(CCN)Cc1c[nH]nc1-c1cccc(C#N)c1 [Compound 70] |  |
| 715 nM | 8.16 nM | CN(CCN)Cc1c[nH]nc1-c1cccc(F)c1 [Compound 71] |  |
| 7040 nM | 62.9 nM | CN(CCN)Cc1c[nH]nc1-c1ccccc1F [Compound 72] |  |
| 2900 nM | 25.9 nM | CN(CCN)Cc1c[nH]nc1-c1ccccc1 [Compound 73] |  |
| 3530 nM | 37.8 nM | CN(CCN)Cc1c[nH]nc1-c1ccc(C(C)(C)C)cc1 [Compound 74] |  |

| IC50 (Human CARM1 (PRMT4)) | IC50 (human PRMT6; [2]) | SMILES | IC50 (human PRMT6; [1]) |
| --- | --- | --- | --- |
|  | 1640 nM | CC(C)N(CCN)Cc1c[nH]nc1-c1ccc(F)cc1 [Compound 75] |  |
|  | 66.5 nM | NCCN(Cc1c[nH]nc1-c1ccc(F)cc1)C1CC1 [Compound 78] |  |
| 1630 nM | 105 nM | CN(CCN)Cc1cnn(C2COC2)c1-c1ccc(F)cc1 [Compound 81] |  |
| 9010 nM | 129 nM | CN(CCN)Cc1c[nH]nc1-c1ccc(N2CCNCC2)cc1 [Compound 82] |  |
| 1130 nM | 52.8 nM | CN(CCN)Cc1nn(C)cc1-c1ccc(C#N)cc1 [Compound 83] |  |
| 4190 nM | 9.16 nM | CN(CCN)Cc1c[nH]nc1-c1ccc(Cl)cc1Cl [Compound 86] |  |
| 4380 nM | 103 nM | COc1ccc(-c2n[nH]cc2CN(C)CCN)c(OC)c1 [Compound 87] |  |
| 5220 nM | 29 nM | Cc1ccc(-c2n[nH]cc2CN(C)CCN)c(C)c1 [Compound 88] |  |
| 5980 nM | 13.5 nM | CN(CCN)Cc1c[nH]nc1-c1ccc(F)cc1Cl [Compound 89] |  |
| 6920 nM | 10.2 nM | Cc1ccc(-c2n[nH]cc2CN(C)CCN)c(Cl)c1 [Compound 90] |  |
|  | 237 nM | Cc1ccc(Cl)c(-c2n[nH]cc2CN(C)CCN)c1 [Compound 91] |  |
| 690 nM | 6.45 nM | CN(CCN)Cc1c[nH]nc1-c1ccc(C(F)(F)F)cc1 [Compound 92] |  |
| 1830 nM | 10.7 nM | CN(CCN)Cc1c[nH]nc1-c1ccc(OC(F)(F)F)cc1 [Compound 93] |  |
| 873 nM | 8.02 nM | CN(CCN)Cc1c[nH]nc1-c1ccc(OC(F)F)cc1 [Compound 94] |  |
| 392 nM | 5.61 nM | CN(CCN)Cc1c[nH]nc1-c1ccc(Cl)cc1 [Compound 95] |  |
|  | 11 nM | CC(C)Oc1ccc(-c2n[nH]cc2CN(C)CCN)cc1Cl [Compound 168] |  |

| SMILES | IC50 (Human CARM1 (PRMT4)) | IC50 (human PRMT6; [2]) | IC50 (human PRMT6; [1]) |
| --- | --- | --- | --- |
| CN(CCN)Cc1c[nH]nc1-c1ccc(F)cc1 [Compound 1] | 1350 nM |  | 11 nM |
| CN(CCN)Cc1cnn(C)c1-c1ccc(F)cc1 [Compound 4] | 742 nM | 76.1 nM |  |
| CNCCN(C)Cc1c[nH]nc1-c1cccc(N)c1 [Compound 32] | 1130 nM |  | 22.2 nM |
| CNCCN(C)Cc1c[nH]nc1-c1ccc(CC#N)cc1 [Compound 34] | 1370 nM |  | 11.3 nM |
| CNCCN(C)Cc1c[nH]nc1-c1cccc(NC(C)=O)c1 [Compound 42] | 2240 nM |  | 47.6 nM |
| CNCCN(C)Cc1c[nH]nc1-c1cccc(C(C)=O)c1 [Compound 44] | 1090 nM |  | 39.4 nM |
| CNCCN(C)Cc1c[nH]nc1-c1ccc(-c2ccccc2)cc1 [Compound 47] | 28.3 nM |  | 4.76 nM |
| CN(CCN)Cc1cn(C2COC2)nc1-c1ccc(F)cc1 [Compound 77] | 4090 nM | 101 nM |  |
| CN(CCN)Cc1c[nH]nc1-c1ccc(C(F)(F)F)cc1C(F)(F)F [Compound 85] |  | 701 nM |  |
